Laboratory results reported in PMC10600185, “Development and pharmaceutical investigation of novel cervical cancer-targeting and redox-responsive melittin conjugates” (Scientific Reports, 2023).
In brackets after ≈: the same amount, converted by molar mass.

What was measured:
[1] = HPLC % ACN at elution as measure of hydrophobicity; type: physicochemical; conditions: semi-preparative RP-HPLC, C-18 column; for HPLC gradient (ACN %) of the purified peak: 0–100% ACN (0.025% TFA) gradient, 30 min for FA conjugates, 40 min for Target conjugates, % ACN used as hydrophobicity
Procedure: The peptide/conjugate was purificated and analyzed (data not shown) using HPLC (Agilent Technologies, USA) with C-18 column (RPC 250 × 10 mm ID hydrophobic 6 µm, Agilent VariTide). For the CM–FA and MC–FA conjugates’ purification, we used a 0–100% ACN (0.025% TFA) gradient for 30 min, and for the CM–Target, and MC–Target conjugates, we used a 0–100% ACN (0.025% TFA) gradient for 40 min. Peptide methods for HPLC purification are provided in Supp. Data 1. A Nicolet iS10 FT-IR was used to obtain infrared spectra of the peptide/conjugates in the range of 4000–500 cm^−1. The chemical structure of the peptide/conjugates was characterized by proton nuclear resonance (^1H NMR) spectroscopy using a 400-MHz Burker NMR spectrometer in DMSO-d6. To evaluate the molecular weight of the synthesized peptide, LC–MS/MS (6420 Triple Quad, Agilent Technologies) was used.

[2] = MTT cytotoxicity assay, NSF; type: cell-based; conditions: human, normal skin fibroblast (NSF) cells, 24 h treatment, serial dilutions 256–1 µg/mL, concentration by modified Mel peptide content, mean of three replicates
Procedure: (§1) C-33A ([…], ATCC), HeLa ([…], ATCC), 3T3 (CRL-1658™, ATCC), Normal Skin Fibroblast (CRL-2091™, ATCC) and MCF-7 (HTB-22™, ATCC) cell lines were cultured in complete EMEM, DMEM, DMEM, EMEM, and EMEM (containing 1% Pen/Strep antibiotic and 10% FBS), respectively. Cells from the different lines were seeded at a density of 5 × 10^4 cells/well in 100 µL medium placed in a flat-bottom 96-well plate and incubated at 5% CO2 and 37 °C. After 24 h, the medium was discarded from the 96-well plate. Serial dilutions of peptide/conjugate (i.e., 256–1 µg/mL) were prepared in triplicate in 100 µL complete medium then added onto each well and incubated at 5% CO2 and 37 °C for 24 h. The cytotoxicity was determined by MTT test (MTT, Cell Proliferation Kit, Roche) and measured at 550–690 nm on a microplate reader. The cell cytotoxicity was calculated with respect to control groups treated with only complete medium.

human red blood cells = test: Hemolytic activity; type: cell-based; conditions: human erythrocytes in tris-saline pH 7.2, 256–4 µg/mL, 37 °C, 1 h, absorbance 414 nm, triplicate
Procedure: 30 µL of fresh human blood was added to 10 mL of autoclaved tris-saline (10 mM tris, 150 mM NaCl, pH 7.2) and centrifuged at 1500 rpm for 5 min three times. 100 µL of the blood mix was added to each well of a round-bottom 96-well plate. Concentrations of freshly prepared peptide/conjugate (i.e., ranging from 256–4 µg/mL) in tris-saline (100 µL of total volume) were added to the 96-well plate containing the blood mix and the plate kept at 37 °C for 1 h. Triton X-100 in 10% DMSO-treated blood mix and blood mix without addition were used as positive and negative controls, respectively. Next, the plate was centrifuged for 10 min at 1500 rpm. The supernatants were taken into a new round-bottom 96-well plate and measured at 414 nm using a microplate reader. All samples were used as a triplicate.

[3] = MTT cytotoxicity assay, 3T3; type: cell-based; conditions: mouse, 3T3 cells (embryonic fibroblasts), 24 h treatment, serial dilutions 256–1 µg/mL, concentration by modified Mel peptide content, mean of three replicates
Procedure: as §1

C33A cells = test: ROS assay (DCFDA), C33A; type: cell-based, human; conditions: 200 µM TBHP positive control, Ex/Em 485/535 nm, data not shown
Procedure: (§2) To evaluate the ROS activity of peptide/conjugates, a ROS kit (DCFDA/H2DCFDA—Cellular ROS Assay Kit, Abcam) was applied to C33A, HeLa, and Normal Skin Human Fibroblast cells. 25,000 cells/well were seeded on a flat-bottom 96-well plate and incubated at 37 °C and 5% CO2. After 24 h, the media was discarded, and the wells were washed with 1 × buffer. DCFDA was then added to wells (except for non-stained control cells) and all plates were incubated for 45 min at 37 °C and 5% CO2 in the dark. […] A positive control (TBHP) was also applied. The results were assessed using a microplate reader (Varioskan Flash, Thermo Scientific) at Ex/Em: 485/535 nm. The negative control (non-stained cells) was subtracted from the cell control and drug samples for calculation.

NSF cells = test: ROS assay (DCFDA), NSF; type: cell-based, human; conditions: 200 µM TBHP positive control, Ex/Em 485/535 nm, data not shown
Procedure: as §2

HeLa cells = test: ROS assay (DCFDA), HeLa; type: cell-based, human; conditions: 200 µM TBHP positive control, Ex/Em 485/535 nm, data not shown
Procedure: as §2

E. coli 25922 = test: Minimum inhibitory concentration, E. coli; type: cell-based, Escherichia coli; set-up: key: No inhibitory effects were observed at any of the concentrations tested in the areas marked “X” and bacterial growth was seen; conditions: MHB, two-fold dilutions 1024–0.5 µg/mL, 37 °C overnight, OD 600 nm
Procedure: (§3) The MIC of the conjugates on E. coli and S. aureus were determined. 95 µL of the MHB containing serial two-fold dilutions of each peptide/conjugate were added to a round-bottom 96-well plate from a maximum concentration of 1024 µg/mL to 0.5 µg/mL. Bacterial samples were taken from an exponentially growing culture in MHB and adjusted to 1.5 × 10^6 CFU/mL. 5 µL of the prepared bacterial suspension was added to each well and incubated at 37 °C, overnight. The bacterial growth was measured using a microplate reader (Gen5 Synergy HT, Biotek) at 600 nm. Broth containing only bacteria was used as a positive control while broth without bacteria was used as a negative control.

S. aureus 25923 = test: Minimum inhibitory concentration, S. aureus; type: cell-based, Staphylococcus aureus; set-up: key: No inhibitory effects were observed at any of the concentrations tested in the areas marked “X” and bacterial growth was seen; conditions: MHB, two-fold dilutions 1024–0.5 µg/mL, 37 °C overnight, OD 600 nm
Procedure: as §3

cell lines = test: Cytotoxicity of the targeting peptide alone on the cell lines; type: cell-based; conditions: tested alone on cell lines, data not shown
Procedure: as §1

Compound | HPLC gradient (ACN %) of the purified peak [1] | IC50 at 24 h [2] | IC50 at 24 h [3] | further results
CC[C@H](C)[C@H](NC(=O)CNC(=O)[C@@H](N)CS)C(=O)NCC(=O)N[C@@H](C)C(=O)N[C@H](C(=O)N[C@@H](CC(C)C)C(=O)N[C@@H](CCCCN)C(=O)N[C@H](C(=O)N[C@@H](CC(C)C)C(=O)N[C@H](C(=O)N[C@H](C(=O)NCC(=O)N[C@@H](CC(C)C)C(=O)N1CCC[C@H]1C(=O)N[C@@H](C)C(=O)N[C@@H](CC(C)C)C(=O)N[C@H](C(=O)N[C@@H](CO)C(=O)N[C@@H](Cc1c[nH]c2ccccc12)C(=O)N[C@H](C(=O)N[C@@H](CCCCN)C(=O)N[C@@H](CCCNC(=N)N)C(=O)N[C@@H](CCCCN)C(=O)N[C@@H](CCCNC(=N)N)C(=O)N[C@@H](CCC(N)=O)C(=O)N[C@@H](CCC(N)=O)C(N)=O)[C@@H](C)CC)[C@@H](C)CC)[C@@H](C)O)[C@@H](C)O)C(C)C)C(C)C [C-Mel] | 77–79% | 53.4 µg/mL (≈ 18.1 µM) | 84 µg/mL (≈ 28.5 µM) | Hemotoxicity ranking among peptides/conjugates (human red blood cells): highest hemotoxicity
CC[C@H](C)[C@H](NC(=O)CN)C(=O)NCC(=O)N[C@@H](C)C(=O)N[C@H](C(=O)N[C@@H](CC(C)C)C(=O)N[C@@H](CCCCN)C(=O)N[C@H](C(=O)N[C@@H](CC(C)C)C(=O)N[C@H](C(=O)N[C@H](C(=O)NCC(=O)N[C@@H](CC(C)C)C(=O)N1CCC[C@H]1C(=O)N[C@@H](C)C(=O)N[C@@H](CC(C)C)C(=O)N[C@H](C(=O)N[C@@H](CO)C(=O)N[C@@H](Cc1c[nH]c2ccccc12)C(=O)N[C@H](C(=O)N[C@@H](CCCCN)C(=O)N[C@@H](CCCNC(=N)N)C(=O)N[C@@H](CCCCN)C(=O)N[C@@H](CCCNC(=N)N)C(=O)N[C@@H](CCC(N)=O)C(=O)N[C@@H](CCC(N)=O)C(N)=O)[C@@H](C)CC)[C@@H](C)CC)[C@@H](C)O)[C@@H](C)O)C(C)C)C(C)C [Mel, Melittin] | 63–72% | – | – | Hydrophobicity as % ACN at elution ([1]; ACN (0.025% TFA) gradient): 67 % ACN
CC[C@H](C)[C@H](NC(=O)CN)C(=O)NCC(=O)N[C@@H](C)C(=O)N[C@H](C(=O)N[C@@H](CC(C)C)C(=O)N[C@@H](CCCCN)C(=O)N[C@H](C(=O)N[C@@H](CC(C)C)C(=O)N[C@H](C(=O)N[C@H](C(=O)NCC(=O)N[C@@H](CC(C)C)C(=O)N1CCC[C@H]1C(=O)N[C@@H](C)C(=O)N[C@@H](CC(C)C)C(=O)N[C@H](C(=O)N[C@@H](CO)C(=O)N[C@@H](Cc1c[nH]c2ccccc12)C(=O)N[C@H](C(=O)N[C@@H](CCCCN)C(=O)N[C@@H](CCCNC(=N)N)C(=O)N[C@@H](CCCCN)C(=O)N[C@@H](CCCNC(=N)N)C(=O)N[C@@H](CCC(N)=O)C(=O)N[C@@H](CCC(N)=O)C(=O)N[C@@H](CS)C(N)=O)[C@@H](C)CC)[C@@H](C)CC)[C@@H](C)O)[C@@H](C)O)C(C)C)C(C)C [Mel-C] | 77–79% | 43.7 µg/mL (≈ 14.8 µM) | 130 µg/mL (≈ 44.2 µM) | –
CC(C)(C)OO [TBHP] | – | – | – | ROS level, C33A (C33A cells): 60.70 RFU; ROS level, NSF (NSF cells): 36.46 RFU; ROS level, HeLa (HeLa cells): 51.26 RFU
CKQNLAEG [Targeting peptide, CSP-KQ peptide (CKQNLAEG), specific to cervical squamous cell carcinoma tissue] | 53–57% | – | – | Minimum inhibitory concentration, E. coli 25922 (E. coli 25922): X; Minimum inhibitory concentration, S. aureus 25923 (S. aureus 25923): X; Toxicity of the peptide alone on cell lines (cell lines): non-toxic
